Where only a bound is given, the exact number is not on record here.

As usually defined, the IC50 is the concentration that gives 50% inhibition. A higher IC50 goes with weaker potency in that assay.

The target of the experiment is Squalene monooxygenase (Sus scrofa). Nature of the experiment: In vitro inhibitory activity against pig liver microsomal squalene epoxidase. (Liver microsomes are a subcellular fraction often used to study metabolism.)
`CCN(C/C=C/C#CC(C)(C)C)Cc1cccc(OC[Si](C)(C)c2ccc(C(=O)C(F)(F)F)cc2)c1` [1-{4-[(3-{[((E)-6,6-Dimethyl-hept-2-en-4-ynyl)-ethyl-amino]-methyl}-phenoxymethyl)-dimethyl-silanyl]-phenyl}-2,2,2-trifluoro-ethanone] returned an IC50 of 5000 nM.
To `CCN(C/C=C/C#CC(C)(C)C)Cc1cccc(OC[Si](C)(C)c2ccc(C=O)cc2)c1` [4-[(3-{[((E)-6,6-Dimethyl-hept-2-en-4-ynyl)-ethyl-amino]-methyl}-phenoxymethyl)-dimethyl-silanyl]-benzaldehyde] belongs 100 nM; to `CCN(C/C=C/C#CC(C)(C)C)Cc1cccc(OC[Si](C)(C)c2ccc(C(N)=O)cc2)c1` [4-[(3-{[((E)-6,6-Dimethyl-hept-2-en-4-ynyl)-ethyl-amino]-methyl}-phenoxymethyl)-dimethyl-silanyl]-benzamide], 5000 nM; to `CCN(C/C=C/C#CC(C)(C)C)Cc1cccc(OC[Si](C)(C)c2ccc(S)cc2)c1` [4-[(3-{[((E)-6,6-Dimethyl-hept-2-en-4-ynyl)-ethyl-amino]-methyl}-phenoxymethyl)-dimethyl-silanyl]-benzenethiol], 8000 nM.
To `CCN(C/C=C/C#CC(C)(C)C)Cc1cccc(OC[Si](C)(C)c2ccc(O)cc2)c1` [4-[(3-{[((E)-6,6-Dimethyl-hept-2-en-4-ynyl)-ethyl-amino]-methyl}-phenoxymethyl)-dimethyl-silanyl]-phenol] belongs 8000 nM; to `CCN(C/C=C/C#CC(C)(C)C)Cc1cccc(OC[Si](C)(C)c2ccc(Br)cc2)c1` [(3-{[(4-Bromo-phenyl)-dimethyl-silanyl]-methoxy}-benzyl)-((E)-6,6-dimethyl-hept-2-en-4-ynyl)-ethyl-amine], 210 nM.
For `CCN(C/C=C/C#CC(C)(C)C)Cc1cccc(OC[Si](C)(C)c2ccc(Cl)cc2)c1` [(3-{[(4-Chloro-phenyl)-dimethyl-silanyl]-methoxy}-benzyl)-((E)-6,6-dimethyl-hept-2-en-4-ynyl)-ethyl-amine] the value was 400 nM.
For the compound `CCN(C/C=C/C#CC(C)(C)C)Cc1cccc(OC[Si](C)(C)c2ccccc2-c2ccsc2)c1` [((E)-6,6-Dimethyl-hept-2-en-4-ynyl)-(3-{[dimethyl-(2-thiophen-3-yl-phenyl)-silanyl]-methoxy}-benzyl)-ethyl-amine], half-maximal inhibition (IC50) required 10000 nM.
In turn, `CCN(C/C=C/C#CC(C)(C)C)Cc1cccc(OC[Si](C)(C)c2ccccc2C(F)(F)F)c1` [((E)-6,6-Dimethyl-hept-2-en-4-ynyl)-(3-{[dimethyl-(2-trifluoromethyl-phenyl)-silanyl]-methoxy}-benzyl)-ethyl-amine] returned an IC50 of 70 nM.
To `C=Cc1ccc([Si](C)(C)COc2cccc(CN(CC)C/C=C/C#CC(C)(C)C)c2)cc1` [((E)-6,6-Dimethyl-hept-2-en-4-ynyl)-(3-{[dimethyl-(4-vinyl-phenyl)-silanyl]-methoxy}-benzyl)-ethyl-amine] belongs 70 nM; to `CCN(C/C=C/C#CC(C)(C)C)Cc1cccc(OC[Si](C)(C)c2ccc(F)cc2)c1` [((E)-6,6-Dimethyl-hept-2-en-4-ynyl)-ethyl-(3-{[(4-fluoro-phenyl)-dimethyl-silanyl]-methoxy}-benzyl)-amine], 60 nM.
`CCN(C/C=C/C#CC(C)(C)C)Cc1cccc(OC[Si](C)(C)c2ccc(OC)cc2)c1` [((E)-6,6-Dimethyl-hept-2-en-4-ynyl)-ethyl-(3-{[(4-methoxy-phenyl)-dimethyl-silanyl]-methoxy}-benzyl)-amine] registered an IC50 of 870 nM.
For `CCN(C/C=C/C#CC(C)(C)C)Cc1cccc(OC[Si](C)(C)c2cccc(C)c2)c1` [((E)-6,6-Dimethyl-hept-2-en-4-ynyl)-{3-[(dimethyl-m-tolyl-silanyl)-methoxy]-benzyl}-ethyl-amine] the value was 3000 nM; for `CCN(C/C=C/C#CC(C)(C)C)Cc1cccc(OC[Si](C)(C)c2ccc(C)cc2)c1` [((E)-6,6-Dimethyl-hept-2-en-4-ynyl)-{3-[(dimethyl-p-tolyl-silanyl)-methoxy]-benzyl}-ethyl-amine], 120 nM; for `CCN(C/C=C/C#CC(C)(C)C)Cc1cccc(OC[Si](C)(C)CCc2ccccc2)c1` [((E)-6,6-Dimethyl-hept-2-en-4-ynyl)-{3-[(dimethyl-phenethyl-silanyl)-methoxy]-benzyl}-ethyl-amine], > 10000 nM.
Regarding `CCN(C/C=C/C#CC(C)(C)C)Cc1cccc(OC[Si](C)(C)Cc2ccccc2)c1` [{3-[(Benzyl-dimethyl-silanyl)-methoxy]-benzyl}-((E)-6,6-dimethyl-hept-2-en-4-ynyl)-ethyl-amine], the IC50 was determined as 130 nM.
To `CCN(C/C=C/C#CC(C)(C)C)Cc1cccc(OC[Si](C)(C)C2CCCCC2)c1` [{3-[(Cyclohexyl-dimethyl-silanyl)-methoxy]-benzyl}-((E)-6,6-dimethyl-hept-2-en-4-ynyl)-ethyl-amine] belongs 20000 nM.
To `CCN(CC#CC#CC(C)(C)OC)Cc1cccc(OC[Si](C)(C)c2ccccc2C)c1` [{3-[(Dimethyl-o-tolyl-silanyl)-methoxy]-benzyl}-ethyl-(6-methoxy-6-methyl-hepta-2,4-diynyl)-amine] belongs 70 nM.
